Where “and” joins values, the source holds several entries; their conditions need not be identical. Identical values can stand only once. Like-named read-outs stand apart in the source and are kept apart here.
What was measured:
TT = assay: XTT cell viability assay, TT; type: cell-based; settings: for The absorbance, group - Blank: mean minus blank; for The absorbance: single value
Method: (§1) Cancer cell lines HCC 1419, MCF-7, MDA-MB-468, SKBR3, PC3, HT1299, Saos-2, C-6, AsPc, MDA-MB-231, RKO, HeLa and TT, and normal cell lines HME 50 HT, BJ and CCD-1074sk were tested for changes in metabolism (XTT assay) and cell death (cell counts).
(§2) Cells were plated into 48-well Corning CellBind™ plates at densities of 20,000 cells for normal cells and 10,000˜20,000 cells for cancer cells. 24 to 48 h after plating, cells were treated with the composition according to the invention at concentrations of 4.5e-2M. The first time point treated with the composition of the invention is 0 h. At 3 days after the first treatment with the composition of the invention, medium was changed and the composition of the invention at the same concentrations were added to the cultured cells.
Cells were seeded in a 96-well tissue culture plate at a density of 10,000 cells for normal cells and 5,000 cells for cancer cells. After incubation period, the formazan dye formed was quantitated using an ELISA reader. The optimal wavelength used in experiments was 500 nm, and it was measured at 0 h, 12 h, 24 h, 48 h, 4 d and 7 d, respectively. The obtained values were generated using the software SoftMax Pro 4.8.
The cell viability was calculated according to the manufacturer's instructions as follows (the term “blank” means XTT in medium only):
Cellular cytotoxicity was calculated according to the manufacturer's instructions as follows:

MCF-7 = assay: Cell counts, MCF-7; type: cell-based; settings: for cell counts: single wells
Method: as §1, §2
(§3) Cells were harvested using Trypsin-EDTA at the designated time points. […] Two 48-well plates were used per cell line, and they were measured at 0 h, 12 h, 24 h, 48 h, 4 d and 7 d, respectively.
In the 1st plate, cells were treated with the composition according to the invention and medium was changed at 0 h and 3 d. […] As a result, LC-50 curves were generated in the 1st week.

HME 50 HT = type: cell-based; settings: for cell counts: single count
Method: As a result, LC-50 curves were generated in the 1st week.
In the 2nd plate, 7 d of the 1st week (LC-50) is the same as 0 h of the 2nd week (recovery).
At 0 h of the 2nd week, medium was exchanged with untreated medium for the remainder of the experiment. The untreated controls were not measured in the 2nd week (recovery) due to overconfluence by the end of the 1st week. As a result, Recovery curves were generated in the 2nd week.
Human Mammary Epithelial (HME) cells were derived from adjacent normal tissue.

PC-3 = assay: Cell counts, PC-3; type: cell-based, human; settings: for cell counts: single wells
Method: as §2, §3
In the 1st plate, cells were treated with the composition according to the invention and medium was changed at 0 h and 3 d.

[1] = HME 50 HT, 1st week (LC50), 0 h
[2] = HME 50 HT, 1st week (LC50), 12 h
[3] = HME 50 HT, 1st week (LC50), 24 h
[4] = HME 50 HT, 1st week (LC50), 48 h
[5] = HME 50 HT, 1st week (LC50), 4 d
[6] = HME 50 HT, 1st week (LC50), 7 d

CC(=O)O[C@H]1C(=O)[C@@]2(C)[C@H]([C@H](OC(=O)c3ccccc3)[C@]3(O)C[C@H](OC(=O)[C@H](O)[C@@H](NC(=O)c4ccccc4)c4ccccc4)C(C)=C1C3(C)C)[C@]1(OC(C)=O)CO[C@@H]1C[C@@H]2O [Taxol]
The cytotoxicity (TT; 1st week (LC50), 0 h): 0.6095
The viability (TT; 1st week (LC50), 0 h): 0.3905
The absorbance, group - Blank (TT; 1st week (LC50), 0 h): 0.1760
The absorbance, Mean value (TT; 1st week (LC50), 0 h): 0.4394
The absorbance (TT; 1st week (LC50), 0 h): 0.4452 and 0.4456
The cytotoxicity (TT; 1st week (LC50), 12 h): −0.2604
The viability (TT; 1st week (LC50), 12 h): 1.2604
The absorbance, group - Blank (TT; 1st week (LC50), 12 h): 1.5590
The absorbance, Mean value (TT; 1st week (LC50), 12 h): 1.8224
The absorbance (TT; 1st week (LC50), 12 h): 1.512 and 1.5452
The cytotoxicity (TT; 1st week (LC50), 24 h): −0.0831
The viability (TT; 1st week (LC50), 24 h): 1.0831
The absorbance, group - Blank (TT; 1st week (LC50), 24 h): 2.2745
The absorbance, Mean value (TT; 1st week (LC50), 24 h): 2.5379
The cytotoxicity (TT; 1st week (LC50), 48 h): 0.5671
The viability (TT; 1st week (LC50), 48 h): 0.4329
The absorbance, group - Blank (TT; 1st week (LC50), 48 h): 1.1834
The absorbance, Mean value (TT; 1st week (LC50), 48 h): 1.4468
The absorbance (TT; 1st week (LC50), 48 h): 1.6834 and 1.3166
The cytotoxicity (TT; 1st week (LC50), 4 d): −0.3186
The viability (TT; 1st week (LC50), 4 d): 1.3186
The absorbance, group - Blank (TT; 1st week (LC50), 4 d): 1.9816
The cytotoxicity (TT; 1st week (LC50), 7 d): 0.5080
The viability (TT; 1st week (LC50), 7 d): 0.4920
The absorbance, group - Blank (TT; 1st week (LC50), 7 d): 0.9498
The absorbance, Mean value (TT; 1st week (LC50), 7 d): 1.2132
The absorbance (TT; 1st week (LC50), 7 d): 1.2763
The cytotoxicity (TT; 2nd week (recovery), 0 h): −3.3443
The viability (TT; 2nd week (recovery), 0 h): 4.3443
The absorbance, group - Blank (TT; 2nd week (recovery), 0 h): 1.9578
The absorbance, Mean value (TT; 2nd week (recovery), 0 h): 2.2212
The cytotoxicity (TT; 2nd week (recovery), 12 h): −0.1062
The viability (TT; 2nd week (recovery), 12 h): 1.1062
The absorbance, group - Blank (TT; 2nd week (recovery), 12 h): 2.3230
The absorbance, Mean value (TT; 2nd week (recovery), 12 h): 2.5864
The cytotoxicity (TT; 2nd week (recovery), 24 h): 0.5481
The viability (TT; 2nd week (recovery), 24 h): 0.4519
The absorbance, group - Blank (TT; 2nd week (recovery), 24 h): 1.2354
The absorbance, Mean value (TT; 2nd week (recovery), 24 h): 1.4988
The cytotoxicity (TT; 2nd week (recovery), 48 h): 0.6857
The viability (TT; 2nd week (recovery), 48 h): 0.3143
The absorbance, group - Blank (TT; 2nd week (recovery), 48 h): 0.4723
The absorbance, Mean value (TT; 2nd week (recovery), 48 h): 0.7357
The cytotoxicity (TT; 2nd week (recovery), 4 d): 0.8411
The viability (TT; 2nd week (recovery), 4 d): 0.1589
The absorbance, group - Blank (TT; 2nd week (recovery), 4 d): 0.3067
The absorbance, Mean value (TT; 2nd week (recovery), 4 d): 0.5701
The absorbance (TT; 2nd week (recovery), 4 d): 0.4887 and 0.7079 and 0.5136
The cytotoxicity (TT; 2nd week (recovery), 7 d): −3.3443
The viability (TT; 2nd week (recovery), 7 d): 4.3443
The absorbance, group - Blank (TT; 2nd week (recovery), 7 d): 1.9578
The absorbance, Mean value (TT; 2nd week (recovery), 7 d): 0.2634
The absorbance (TT; 2nd week (recovery), 7 d): 0.2616 and 0.2542 and 0.2744
cell counts, Mean value (MCF-7; 1st week (LC50), 0 h): 55333
cell counts (MCF-7; 1st week (LC50), 0 h): 39000 and 67000 and 60000
cell counts, Mean value (MCF-7; 1st week (LC50), 24 h): 43667
cell counts (MCF-7; 1st week (LC50), 24 h): 39000 and 54000 and 38000
cell counts, Mean value (MCF-7; 1st week (LC50), 48 h): 23333
cell counts (MCF-7; 1st week (LC50), 48 h): 21000 and 19000 and 30000
cell counts, Mean value (MCF-7; 1st week (LC50), 4 d): 21667
cell counts, Mean value (MCF-7; 1st week (LC50), 7 d): 4333
cell counts (MCF-7; 1st week (LC50), 7 d): 4000 and 5000
cell counts, Mean value (MCF-7; 2nd week (recovery), 0 h): 2032
cell counts (MCF-7; 2nd week (recovery), 0 h): 2361 and 1648 and 2087
cell counts, Mean value (MCF-7; 2nd week (recovery), 24 h): 646
cell counts (MCF-7; 2nd week (recovery), 24 h): 807 and 728
cell counts, Mean value (MCF-7; 2nd week (recovery), 48 h): 2084
cell counts (MCF-7; 2nd week (recovery), 48 h): 1726 and 2010 and 2517
cell counts, Mean value (MCF-7; 2nd week (recovery), 4 d): 2013
cell counts (MCF-7; 2nd week (recovery), 4 d): 2135 and 1892 and 2011
cell counts, Mean value (MCF-7; 2nd week (recovery), 7 d): 1772
cell counts (MCF-7; 2nd week (recovery), 7 d): 2098 and 1693 and 1524
number of normal cells (HME 50 HT): the number of cells did not increase, and was merely maintained for two weeks
cell counts, Mean value (HME 50 HT; [1]): 14667
cell counts (HME 50 HT; [1]): 12000 and 11000 and 21000
cell counts, Mean value (HME 50 HT; [2]): 16667
cell counts (HME 50 HT; [2]): 14000 and 23000 and 13000
cell counts, Mean value (HME 50 HT; [3]): 11333
cell counts (HME 50 HT; [3]): 14000 and 11000 and 9000
cell counts, Mean value (HME 50 HT; [4]): 15667
cell counts (HME 50 HT; [4]): 18000 and 11000
cell counts, Mean value (HME 50 HT; [5]): 9000
cell counts (HME 50 HT; [5]): 9000
cell counts, Mean value (HME 50 HT; [6]): 16667
cell counts (HME 50 HT; [6]): 17000 and 19000 and 14000
cell counts, Mean value (HME 50 HT; HME, 2nd week (recovery), 0 h): 16333
cell counts (HME 50 HT; HME, 2nd week (recovery), 0 h): 19000 and 17000 and 13000
cell counts, Mean value (HME 50 HT; HME, 2nd week (recovery), 12 h): 13667
cell counts (HME 50 HT; HME, 2nd week (recovery), 12 h): 13000 and 15000
cell counts, Mean value (HME 50 HT; HME, 2nd week (recovery), 24 h): 12667
cell counts (HME 50 HT; HME, 2nd week (recovery), 24 h): 12000 and 15000 and 11000
cell counts, Mean value (HME 50 HT; HME, 2nd week (recovery), 48 h): 17000
cell counts (HME 50 HT; HME, 2nd week (recovery), 48 h): 18000 and 16000 and 17000
cell counts, Mean value (HME 50 HT; HME, 2nd week (recovery), 4 d): 16333
cell counts (HME 50 HT; HME, 2nd week (recovery), 4 d): 18000 and 19000 and 12000
cell counts, Mean value (HME 50 HT; HME, 2nd week (recovery), 7 d): 16000
cell counts (HME 50 HT; HME, 2nd week (recovery), 7 d): 14000 and 19000 and 15000
killing of PC-3 cells (PC-3): relatively resistant to Taxol
cell counts, Mean value (PC-3; 1st week (LC50), 0 h): 6580
cell counts, Mean value (PC-3; 1st week (LC50), 12 h): 5462
cell counts (PC-3; 1st week (LC50), 12 h): 4805 and 5805 and 5775
cell counts, Mean value (PC-3; 1st week (LC50), 24 h): 5205
cell counts (PC-3; 1st week (LC50), 24 h): 4360 and 4820 and 6435
cell counts, Mean value (PC-3; 1st week (LC50), 48 h): 2013
cell counts (PC-3; 1st week (LC50), 48 h): 1821 and 1969
cell counts, Mean value (PC-3; 1st week (LC50), 4 d): 1029
cell counts (PC-3; 1st week (LC50), 4 d): 861 and 975 and 1250
cell counts, Mean value (PC-3; 2nd week (recovery), 0 h): 514
cell counts (PC-3; 2nd week (recovery), 0 h): 392 and 389 and 760
cell counts, Mean value (PC-3; 2nd week (recovery), 24 h): 305
cell counts (PC-3; 2nd week (recovery), 24 h): 269 and 328 and 318
cell counts, Mean value (PC-3; 2nd week (recovery), 48 h): 350
cell counts (PC-3; 2nd week (recovery), 48 h): 369 and 303 and 378
cell counts, Mean value (PC-3; 2nd week (recovery), 4 d): 1324
cell counts (PC-3; 2nd week (recovery), 4 d): 1574 and 1376 and 1023
cell counts, Mean value (PC-3; 2nd week (recovery), 7 d): 483
